Laboratory results from ChEMBL document CHEMBL4004874, “Synthesis and biological evaluation of C-3 aliphatic coumarins as vitamin K antagonists” (Bioorg Med Chem Lett, 2017).

Key:
[1] = target: T1, Vitamin K epoxide reductase complex subunit 1 (Rattus norvegicus, UniProt Q6TEK4); test: Inhibition of VKORC1 in rat liver microsomes in presence of 0.003 to 0.2 mM vitamin K
T1 sequence (Q6TEK4 whole entry): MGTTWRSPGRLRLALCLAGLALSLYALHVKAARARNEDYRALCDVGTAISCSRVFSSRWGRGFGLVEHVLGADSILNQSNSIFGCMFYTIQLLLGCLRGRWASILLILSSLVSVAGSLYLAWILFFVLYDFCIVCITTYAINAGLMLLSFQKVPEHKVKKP

Rattus norvegicus [2] = test: Anticoagulant activity in Sprague-Dawley rat assessed as increase of prothombin time at 10 mg/kg, po after 24 hrs relative to control; type: functional
Liver [3] = test: Drug uptake in Sprague-Dawley rat liver assessed per gram of liver at 10 mg/kg, po after 24 hrs by HPLC-UV analysis; type: ADME, organism-based; details: in vivo
Rattus norvegicus [4] = test: Anticoagulant activity in Sprague-Dawley rat assessed as increase of prothombin time at 10 mg/kg, po after 72 hrs relative to control; type: functional
Liver [5] = test: Drug uptake in Sprague-Dawley rat liver assessed per gram of liver at 10 mg/kg, po after 72 hrs by HPLC-UV analysis; type: ADME, organism-based; details: in vivo
Liver [6] = test: Drug uptake in Sprague-Dawley rat liver assessed per gram of liver at 10 mg/kg, po by HPLC-UV analysis; type: ADME, organism-based; details: in vivo
Rattus norvegicus [7] = test: Anticoagulant activity in Sprague-Dawley rat assessed as increase of prothombin time at 10 mg/kg, po after 7 hrs relative to control; type: functional
Liver [8] = test: Drug uptake in Sprague-Dawley rat liver assessed per gram of liver at 10 mg/kg, po after 7 hrs by HPLC-UV analysis; type: ADME, organism-based; details: in vivo

Row | SMILES | Ki [1] | fold change (FC) (Rattus norvegicus [2]) | Drug uptake (Liver [3]) | also measured
1 | CCCCCCCCCCCCc1c(O)c2ccccc2oc1=O | 50 nM | 1 | 0.7 µg/g | 
2 | CCCCCCCCCCCc1c(O)c2ccccc2oc1=O | 60 nM |  |  | 
3 | CCCCCCCCCCCC(c1ccc(Cl)cc1Cl)c1c(O)c2ccccc2oc1=O (stereo not given) | 90 nM | 2 | 3.5 µg/g | fold change (FC) (Rattus norvegicus [4]): 1; Drug uptake (Liver [5]): 0.7 µg/g
4 | CCCCCCCCc1c(O)c2ccccc2oc1=O | 260 nM |  |  | 
5 | CCCCCCCCCCCC(c1ccccc1)c1c(O)c2ccccc2oc1=O (stereo not given) | 30 nM | 1 | 0.7 µg/g | 
6 | CCCCCCCCCCCC(c1ccc(F)cc1)c1c(O)c2ccccc2oc1=O (stereo not given) | 20 nM | 2 | 0.7 µg/g | 
7 | CC(C)CCCC(C)CCCC(C)CCCC(C)CC(c1ccccc1)c1c(O)c2ccccc2oc1=O (stereo not given) | 200 nM | 1 |  | Drug uptake (Liver [6]; BLD = below limit of detection): Bld
8 | CCCCCCCCCCc1c(O)c2ccccc2oc1=O | 90 nM |  |  | 
9 | C/C(=C\Cc1c(O)c2ccccc2oc1=O)CCCC(C)CCCC(C)CCCC(C)C (stereo not given) | 20 nM | 1 |  | Drug uptake (Liver [6]): 1.3 µg/g
10 | CCCCCCc1c(O)c2ccccc2oc1=O | 3900 nM |  |  | 
11 | CCCCCCCCCCCC(c1ccc(Cl)cc1)c1c(O)c2ccccc2oc1=O (stereo not given) | 20 nM | 4 | 3 µg/g | fold change (FC) (Rattus norvegicus [7]): 1; fold change (FC) (Rattus norvegicus [4]): 1; Drug uptake (Liver [8]): 13 µg; Drug uptake (Liver [5]): 1 µg/g
12 | CC(C)CCCC(C)CCCC(C)CCCC(C)CCc1c(O)c2ccccc2oc1=O (stereo not given) | 50 nM | 1 |  | Drug uptake (Liver [6]; BLD = below limit of detection): Bld
13 | CCCCCCCCCCCC(c1ccc(OC)cc1)c1c(O)c2ccccc2oc1=O (stereo not given) | 100 nM |  |  | 
14 | CCCCCCCCCCCC(c1ccc(C(C)(C)C)cc1)c1c(O)c2ccccc2oc1=O (stereo not given) | 22000 nM |  |  | 
15 | CCC(c1ccccc1)c1c(O)c2ccccc2oc1=O (stereo not given) [PHENPROCOUMON] | 200 nM | 5.5 | 12.8 µg/g | Drug uptake (Liver [5]): 1.7 µg/g
